In patent US20090176817A1, “Method of Treatment of Diarrhea-Predominant Irritable Bowel Syndrome in a Subject” (priority 2005, published 2009):

How the values were obtained:
[1] = Study S.241.1.109: interaction with fluvoxamine 50 mg QD; format: in vivo, human; conditions: for AUC(0-τ) / Cmax / Tmax: steady state; for AUC(0-τ): AUC(0-8); for AUC(0-τ) / Cmax: arith. mean; for Tmax: median; for AUC(0-τ) Ratio (Treatment B/A) / Cmax Ratio (Treatment B/A): cilansetron + fluvoxamine / cilansetron alone, ANOVA of log-transformed data
Experimental: In an open-label, randomized, parallel-group study in three groups of 12 healthy, male and female subjects (aged 19 to 45 years), subjects received a 2 mg single dose of cilansetron on Day 1, 2 mg TID on Days 2-13, and a 2 mg single dose on Day 14. […] All morning doses of cilansetron and enzyme inhibitors were administered immediately after a standard breakfast. […] For each treatment group, log-transformed cilansetron AUC(0-τ) and Cmax values on Day 14 (cilansetron+enzyme inhibitor) were compared statistically versus values on Day 7 (cilansetron alone).
FIG. 42, FIG. 43, and FIG. 44 present geometric mean steady-state plasma concentration-time profiles for cilansetron and its 4-hydroxy metabolites in the absence and presence of concomitant fluvoxamine.

[2] = Study S.241.2.112: population pharmacokinetics (NONMEM) in IBS patients; format: in vivo, human; conditions: for predicted steady-state AUC(0-τ) / predicted steady-state Cmax: covariate population PK model, mean (SD); for Increase of apparent oral clearance per 1 mL/min creatinine clearance: population model; for half-life: both sexes
Experimental: The pharmacokinetics and pharmacodynamics of cilansetron following multiple oral administration in non-constipated IBS patients have been examined in a population pharmacokinetic (NONMEM) analysis of a Phase II trial. The study was a double-blind, placebo-controlled, randomized, multi-center, parallel-group, dose ranging study to investigate the Efficacy and safety of four different doses of cilansetron (1 mg, 2 mg, 8 mg, and 16 mg TID) in patients with established IBS (non-constipated patients who suffered from IBS according to the Rome Criteria and were not bothered by constipation for >25% of their IBS episodes). The study was to be performed in approximately 50 centers. A sufficient number of patients were to be recruited to insure that at least 88 patients per treatment group were evaluable for efficacy and to get a total of 440 completers. […] There were interim assessments at the end of the 4th week (Visit 3; Day 29) and 8th week (Visit 4; Day 57) and a final assessment at the end of the 12th week (Visit 5; poststudy). Single blood samples for population pharmacokinetic analyses were drawn at Visits 3, 4, 5 or early termination, at 31 of the participating sites. With the exception of Visit 3, the timing of the blood draw in relation to the previous dose was not specified for any of the samples collected, but the time of sampling and the time of last dosing was recorded for each sample collected. For Visit 3, the blood sample had to be taken between 15 minutes and 2 hours of the morning or midday dose.
Various covariates were screened during development of the population pharmacokinetic model, including age, height, weight, body surface area, body mass index, race, gender, smoking status, serum creatinine levels, serum creatinine clearance, total bilirubin levels, cilansetron dose, and concomitant medication usage. Some efficacy and safety parameters were also evaluated in this population analysis using correlation analyses. Efficacy parameters evaluated included overall relief of IBS symptoms (Responder or Non-Responder), intensity of abdominal pain, number of stools and stool consistency, symptoms of abdominal and rectal discomfort (straining, urgency, feeling of incomplete defecation, passage of mucus, bloating, and feeling of abdominal distension), and upper GI symptoms at Visit 5 (vomiting, heartburn, early satiety, postprandial fullness, sensation of prolonged digestion, and nausea). Safety parameters evaluated included the top ten most frequently observed adverse events (constipation, flatulence, nausea, abdominal pain, headache, dyspepsia, infection, gastrointestinal disorders, anorexia, and diarrhea).
The population analysis included data from 160 patients (63 males and 97 females) with a median age of 45.5 years (range: 20-81 years), median weight of 78 kg (range: 47-121 kg), and median height of 170 cm (range: 147-196 cm). More than 90% of the patients were White and 18.8% of the patients were considered smokers. […] A total of 392 quantifiable concentrations for cilansetron, 393 quantifiable concentrations for (4S)-hydroxy cilansetron, and 397 quantifiable concentrations for (4R)-hydroxy cilansetron from 160 patients were included in the NONMEM datasets for population analyses.
FIG. 54, FIG. 55, and FIG. 56 present mean steady-state plasma concentration-time profiles for cilansetron and its 4-hydroxy metabolites, and Table 2.7.2.3.29 and Table 2.7.2.3.30 present descriptive statistics for the estimated pharmacokinetic parameters of cilansetron and its 4-hydroxy metabolites from the final covariate population pharmacokinetic model. The cilansetron concentration data were best described by a one-compartment model with first-order input, an absorption lag time, and first-order elimination. A log-normal distribution was used to describe the variability of clearance, volume of distribution and absorption rate constant between patients. The residual error was best described by an exponential model. […]

[3] = Cilansetron 2 mg TID + Fluvoxamine 50 mg once daily
[4] = Cilansetron 2 mg TID alone (fluvoxamine group)
[5] = cilansetron 1 mg TID, IBS patients, Bayesian estimates, population PK model, arith. mean
[6] = cilansetron 1 mg TID, IBS patients
[7] = cilansetron 2 mg TID, IBS patients, Bayesian estimates, population PK model, arith. mean
[8] = cilansetron 2 mg TID, IBS patients
[9] = cilansetron 8 mg TID, IBS patients, Bayesian estimates, population PK model, arith. mean
[10] = cilansetron 8 mg TID, IBS patients
[11] = cilansetron 16 mg TID, IBS patients, Bayesian estimates, population PK model, arith. mean
[12] = cilansetron 16 mg TID, IBS patients

SMILES	AUC(0-τ) [1, 3] [ng·h/mL]	Cmax [1, 3] [ng/mL]	Tmax [1, 3] [h]	AUC(0-τ) [1, 4] [ng·h/mL]	Cmax [1, 4] [ng/mL]	Tmax [1, 4] [h]	AUC(0-τ) Ratio (Treatment B/A) [1] [%]	Cmax Ratio (Treatment B/A) [1] [%]	CL/F [2, 5] [L/h]	T½ [2, 5] [h]	predicted steady-state AUC(0-τ) [2, 6]	predicted steady-state Cmax [2, 6]	CL/F [2, 7] [L/h]	T½ [2, 7] [h]	predicted steady-state AUC(0-τ) [2, 8]	predicted steady-state Cmax [2, 8]	CL/F [2, 9] [L/h]	T½ [2, 9] [h]	predicted steady-state AUC(0-τ) [2, 10]	predicted steady-state Cmax [2, 10]	other results
Cc1nccn1CC1CCc2c(c3cccc4c3n2CC[C@H]4O)C1=O (stereo partly drawn) [(4R)-hydroxy cilansetron]	9.57	1.63	0.75	12.9	2.74	1.75	76	60	234	9.55	6.42 (1.40) ng · h/mL	1.05 (0.19) ng/mL	232	9.56	13.0 (2.64) ng · h/mL	2.17 (0.37) ng/mL	229	9.79	53.0 (10.1) ng · h/mL	8.56 (1.70) ng/mL	Mean AUC decrease with fluvoxamine ([1]; human, in vivo): 24%; Mean Cmax decrease with fluvoxamine ([1]; human, in vivo): 40%; CL/F [2, 11]: 232 L/h; T½ [2, 11]: 9.80 h; predicted steady-state AUC(0-τ) [2, 12]: 98.6 (18.8) ng · h/mL; predicted steady-state Cmax [2, 12]: 16.7 (3.0) ng/mL; Increase of apparent oral clearance per 1 mL/min creatinine clearance [2]: 0.447 L/h
Cc1nccn1CC1CCc2c(c3cccc4c3n2CC[C@@H]4O)C1=O (stereo partly drawn) [(4S)-hydroxy cilansetron]	7.17	1.07	2.00	7.29	1.17	3.00	101	93	140	5.42	3.85 (0.92) ng · h/mL	0.546 (0.105) ng/mL	136	5.55	7.68 (1.59) ng · h/mL	1.10 (0.20) ng/mL	134	5.64	31.6 (7.68) ng · h/mL	4.46 (1.04) ng/mL	CL/F [2, 11]: 142 L/h; T½ [2, 11]: 5.31 h; predicted steady-state AUC(0-τ) [2, 12]: 63.2 (16.5) ng · h/mL; predicted steady-state Cmax [2, 12]: 9.03 (2.03) ng/mL; Increase of apparent oral clearance per 1 mL/min creatinine clearance [2]: 0.883 L/h
Cc1nccn1C[C@H]1CCc2c(c3cccc4c3n2CCC4)C1=O [Cilansetron, (R)-(−)-4,5,6,8,9,10-hexahydro-10-[(2-methyl-1H-imidazol-1-yl)methyl]-11H-pyrido-[3,2,1-jk]-carbazol-11-one]	–	–	–	–	–	–	–	–	–	–	–	–	–	–	–	–	–	–	–	–	Increase in cilansetron exposure with fluvoxamine ([1]; both, human, in vivo): 3.7-6.6 fold; Mean AUC increase with fluvoxamine ([1]; both, human, in vivo): 6.6 fold; Mean Cmax increase with fluvoxamine ([1]; both, human, in vivo): 3.7 fold; half-life ([2]; human, in vivo, 1 mg): 4.76 h; half-life ([2]; human, in vivo, 2 mg): 4.3 h; half-life ([2]; human, in vivo, 8 mg): 4.5 h; half-life ([2]; human, in vivo, 16 mg): 4.5 h; Apparent oral clearance decrease with concomitant medications ([2]; both, human, in vivo, po): 38.6%; Apparent oral clearance increase in smokers ([2]; both, human, in vivo, po): 32.2%; Increase of mean apparent oral clearance in smokers ([2]; both, human, in vivo, po): approximately 32%; CL/F ([2]; human, in vivo, 1 mg): 28.3 L/h; CL/F ([2]; human, in vivo, 2 mg): 34.1 L/h; CL/F ([2]; human, in vivo, 8 mg): 34.2 L/h; CL/F ([2]; human, in vivo, 16 mg): 37.3 L/h
